We go through 15 compounds from US11685761B2, “Cyclic di-nucleotide compounds as sting agonists” (Merck Sharp & Dohme Corp., priority 2017, dated 2023).

For one experiment, the target named is T1, full-length HAQ STING (Homo sapiens, UniProt Q86WV6, G230A/H232R/R293Q/R71H).
T1 construct: made in house; host or cells: Trichoplusia ni (Hi-Five) insect cells, baculovirus generated in Sf21; crude membranes
The experiment in a line: 3H-cGAMP filtration binding assay (HAQ STING). The conditions noted are these: competition with tritiated cGAMP ligand; T. ni cell membranes overexpressing full-length HAQ STING. An excerpt:
The ability of compounds to bind STING is quantified by the ability to compete with tritiated cGAMP ligand for human STING receptor membrane using a radioactive filter-binding assay. The binding assay employs STING receptor obtained from Hi-Five cell membranes overexpressing full-length HAQ STING prepared in-house and tritiated cGAMP ligand also purified in-house.
The ability of compounds to bind STING is quantified by their ability to compete with tritiated cGAMP ligand for human STING receptor membrane using a radioactive filter-binding assay. The binding assay employs STING receptor obtained from Trichoplusia ni cell membranes (T. ni; Expression Systems, cat #94-002F, www.expressionsystems.com) overexpressing full-length HAQ STING and tritiated cGAMP ligand.
The basic HAQ STING filtration assay protocol is as follows:
The compounds were serially titrated by the Hamilton STARPlus CORE in a 96-well plate (Greiner, #651201) using a 1:3 ten-point dose response format. […] 148 uL of prepared membrane was then manually added to each well of a 96-well deep-well polypropylene plate (Fisher Scientific, #12-566-121). Following membrane addition, 2 uL of either titrated test compound, DMSO control (Sigma #276855), or cold cGAMP control was added to the appropriate wells using a BIOMEK FX. Compound and membrane then preincubated for 60 min at RT to allow compound binding to equilibrate. Following equilibration, 8 nM of [^3H] c-GAMP ligand was prepared by diluting into assay buffer, and 50 uL of this working stock was then manually added to each well of the assay plate. Plates were then incubated at RT for 60 min, and the contents of each assay plate were then filtered through a 96-well GF/B filter plate (PerkinElmer, #6005250) using a TOMTEC MACH III Cell Harvester equipped with 20 mM HEPES buffer (Fisher Scientific, #BP299500). The filter plates were then dried at 55° C. for 30 min using a pressurized oven before 30 uL of ULTIMA GOLD F scintillate was added to each well. Tritium levels for each reaction well were then measured using a PerkinElmer TopCount plate reader.
After normalization to controls, the percent activity for each compound concentration was calculated by measuring the amount of remaining radioactivity. The plot of percent activity versus the log of compound concentration was fit with a 4-parameter dose response equation to calculate EC50 values.

Experiment [1] relates to IFN-β secretion from THP1 cells. The experiment can be described thus: IFN-β secretion in THP1 cell culture (5 h). Type of experiment: cell-based, human. To be noted: for activation at 30 µM: Homo sapiens, THP-1, 5 h, read-out: % Effect at 30 μM relative to 2′3′-cGAMP. The procedure:
The ability of compounds to stimulate the secretion of interferon-beta from THP1 cells was measured using a human IFN-β AlphaLISA kit (Perkin Elmer, Cat. No. AL265F). The basic protocol is as follows:
The cell viability and count was ascertained using a Beckman Coulter V-Cell XR cell counter. The cell suspension was centrifuged at 200×g for 5 min at RT. Cells were resuspended to a density of 0.8×10^6/mL in 37° C. assay medium. Subsequent liquid transfers were performed using either a Matrix electronic multichannel pipette or an Agilent Bravo Automated Liquid Handling Platform.
The assay was started by dispensing 40 μL of the previously prepared cell suspension into the wells of the plate containing compounds. After 5 h incubation at 37° C., 5% CO2 in a humidified atmosphere, the plate of cells and compounds was centrifuged at 200×g for 5 min at RT. […] To these supernatant-containing wells was added 10 μL of 5× Anti-Analyte Acceptor beads (50 μg/mL of AlphaLISA HiBlock Buffer) and incubated for 30 min at RT while shaking on an orbital plate shaker. To each well was added 10 μL of 5× Biotinylated Antibody Anti-analyte (5 nM in AlphaLISA HiBlock Buffer) and incubated on an orbital plate shaker for 60 min at RT or overnight at 4° C. To each well was added 25 μL of 2× SA-Donor beads (80 μg/mL in AlphaLISA HiBlock Buffer) and incubated for 30-45 min at RT in the dark while shaking on an orbital plate shaker. The plate was then read on a Perkin Elmer Envision (λex680 nm, λem=570 nm). The percent effect of the AlphaLISA signal at each compound concentration was calculated based on 30 uM cGAMP positive controls and 0.3% DMSO negative controls. The plot of percent effect versus the log of compound concentration was fit with a 4-parameter concentration response equation to calculate EC50 values.
Compounds of the disclosure were evaluated for IFN-β secretion in THP1 cell culture as described above.

Setting [2] is: THP1 cells, 5 h incubation, compound at 30 μM, 30 uM cGAMP = 100%.

Each structure is given as a SMILES string. Like-named read-outs stand apart in the source and are kept apart here.

The term EC50 denotes the concentration giving half of the maximal effect.

T1 sequence (Q86WV6 with tags, fused parts or gaps R71H/G230A/H232R/R293Q): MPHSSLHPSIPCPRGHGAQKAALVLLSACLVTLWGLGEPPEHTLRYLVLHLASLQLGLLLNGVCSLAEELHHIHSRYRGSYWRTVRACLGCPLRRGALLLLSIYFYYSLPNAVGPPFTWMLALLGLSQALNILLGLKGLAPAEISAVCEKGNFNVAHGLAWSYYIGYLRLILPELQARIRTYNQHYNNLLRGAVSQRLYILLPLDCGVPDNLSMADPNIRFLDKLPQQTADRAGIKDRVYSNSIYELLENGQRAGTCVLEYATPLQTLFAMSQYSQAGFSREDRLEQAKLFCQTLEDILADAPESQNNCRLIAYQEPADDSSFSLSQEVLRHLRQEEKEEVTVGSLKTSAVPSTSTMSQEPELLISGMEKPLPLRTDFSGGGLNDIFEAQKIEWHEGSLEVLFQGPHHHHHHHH

On full-length HAQ STING, `Nc1ncnc2c1ncn2[C@@H]1O[C@@]23CO[C@@H]1[C@@H]2OP(=O)(S)OC[C@H]1O[C@@H](n2cnc4c(=O)n5cc[nH]c5nc42)[C@H](OP(=O)(S)OC3)[C@@H]1F` (single isomer, unassigned) [Example 27] yielded a concentration giving a half-maximal response (EC50) of 61 nM. In addition, the “% Effect at 30 μM relative to 2′3′-cGAMP” value in experiment [1] (setting [2]) is 143%.

Take `Nc1ncnc2c1ncn2[C@@H]1S[C@@H]2CO[P@@](=O)(S)O[C@@H]3[C@H](O)[C@@H](CO[P@](=O)(S)O[C@H]2[C@H]1O)O[C@H]3n1ccc(=O)n2ccnc12` (single isomer, unassigned) [Example 12]: at full-length HAQ STING, the EC50 worked out at 156 nM. In experiment [1] (setting [2]), the activation at 30 µM was determined as 123%.

Regarding `Nc1nc2c(ncn2[C@@H]2O[C@@H]3COP(=O)(O)O[C@H]4C[C@H](n5ccc6c(=O)[nH]cnc65)O[C@@H]4COP(=O)(S)O[C@@H]2C3)c(=O)[nH]1` (stereo partly drawn) [Example 54, 2-amino-9-[(5S,7R,8R,12aR,14R,15aS)-2-hydroxy-2,10-dioxido-14-(4-oxo-3,4-dihydro-7H-pyrrolo[2,3-d]pyrimidin-7-yl)-10-sulfanyloctahydro-12H-5,8-methanofuro[3,2-l][1,3,6,9,11,2,10]pentaoxadiphosphacyclotetradecin-7-yl]-1,9-dihydro-6H-purin-6-one], the 50% effective concentration (EC50) at full-length HAQ STING worked out at 12 nM. In experiment [1], the “% Effect at 30 μM relative to 2′3′-cGAMP” value stood at 68%.

The compound `Nc1ncnc2c1nnn2[C@@H]1O[C@@H]2COP(=O)(S)O[C@@H]3C[C@@H](COP(=O)(S)O[C@H]2[C@@H]1F)O[C@H]3n1cnc2c(=O)n3cc[nH]c3nc21` (stereo partly drawn) [Example 28, 3-[(5S,7R,8R,12aR,14R,15S,15aR)-14-(7-amino-3H-[1,2,3]triazolo[4,5-d]pyrimidin-3-yl)-15-fluoro-2,10-dioxido-2,10-disulfanyloctahydro-12H-5,8-methanofuro[3,2-l] [1,3,6,9,11,2,10]pentaoxadiphosphacyclotetradecin-7-yl]-3,5-dihydro-9H-imidazo[1,2-a]purin-9-one] registered an EC50 on full-length HAQ STING of 41 nM. In experiment [1] (setting [2]), the activation at 30 µM was found to be 143%.

With `Nc1nc2c(ncn2[C@@H]2O[C@@H]3COP(=O)(S)O[C@H]4C[C@H](n5ccc6c(=O)[nH]cnc65)O[C@@H]4COP(=O)(S)O[C@@H]2[C@@H]3F)c(=O)[nH]1` (single isomer, unassigned) [Example 36], the EC50 at full-length HAQ STING turned out to be 2 nM. The activation at 30 µM in experiment [1] (setting [2]) was 94%.

Turning to `Nc1ncnc2c1ncn2[C@@H]1O[C@@]23CO[C@@H]1[C@@H]2OP(=O)(S)OC[C@H]1O[C@@H](n2cnc4c(=O)n5cc[nH]c5nc42)[C@H](OP(=O)(S)OC3)[C@@H]1F` (single isomer, unassigned) [Example 26], at full-length HAQ STING, the EC50 is 19 nM. In addition, the “% Effect at 30 μM relative to 2′3′-cGAMP” value in experiment [1] (setting [2]) is 153%.

With `Nc1nc2c(ncn2[C@@H]2O[C@@H]3COP(=O)(S)O[C@H]4C[C@H](n5ccc6c(=O)[nH]cnc65)O[C@@H]4COP(=O)(S)O[C@@H]2C3)c(=O)[nH]1` (single isomer, unassigned) [Example 37], at full-length HAQ STING, it took 49 nM to reach a half-maximal effect (EC50). Further, the activation at 30 µM in experiment [1] (setting [2]) was found to be 102%.

In the case of `Nc1ncnc2c1ncn2[C@@H]1O[C@@]23CO[C@@H]1[C@@H]2OP(=O)(S)OC[C@H]1O[C@@H](n2ccc(=O)n4ccnc24)[C@H](OP(=O)(S)OC3)[C@@H]1O` (stereo partly drawn) [Example 6, 8-[(5R,7R,8R,12aR,14R,15R,15aS,18R)-14-(6-amino-9H-purin-9-yl)-18-hydroxy-2,10-dioxido-2,10-disulfanylhexahydro-14H-15,12a-(epoxymethano)-5,8-methanofuro[3,2-l] [1,3,6,9,11,2,10]pentaoxadiphosphacyclotetradecin-7(12H)-yl]imidazo[1,2-a]pyrimidin-5(8H)-one], the midpoint of the response on full-length HAQ STING, the EC50, lay at 28 nM. Also, in experiment [1] (setting [2]), the activation at 30 µM came out at 145%.

For `Nc1nc2c(ncn2[C@@H]2O[C@@H]3COP(=O)(S)O[C@H]4[C@@H](O)[C@H](n5ccc(=O)n6ccnc56)O[C@@H]4COP(=O)(S)O[C@@H]2[C@@H]3F)c(=O)[nH]1` (stereo partly drawn) [Example 31, 2-amino-9-[(5R,7R,8S,12aR,14R,15R,15aS,16R)-16-fluoro-15-hydroxy-2,10-dioxido-14-(5-oxoimidazo [1,2-a]pyrimidin-8(5H)-yl)-2,10-disulfanyloctahydro-12H-5,8-methanofuro[3,2-l][1,3,6,9,11,2,10]pentaoxadiphosphacyclotetradecin-7-yl]-1,9-dihydro-6H-purin-6-one], at full-length HAQ STING, the EC50 came out at 16 nM. The activation at 30 µM in experiment [1] (setting [2]) is 28%.

In the case of `Nc1ncnn2c([C@H]3C[C@@H]4O[P@](=O)(S)OC[C@H]5O[C@@H](n6ccc(=O)n7ccnc67)[C@H](O[P@@](=O)(S)OC[C@H]4O3)[C@@H]5O)cnc12` (single isomer, unassigned) [Example 9], at full-length HAQ STING, the EC50 came out at 23 nM. In experiment [1] (setting [2]), the activation at 30 µM is 80%.

In turn, `Nc1ncnn2c([C@H]3C[C@@H]4O[P@@](=O)(S)OC[C@H]5O[C@@H](n6ccc(=O)n7ccnc67)[C@H](O[P@](=O)(S)OC[C@H]4O3)[C@@H]5O)cnc12` [Example 7, 8-[(2S,5R,7R,8R,10R,12aR,14R,15aS,16R)-14-(4-aminoimidazo[2,1-f][1,2,4]triazin-7-yl)-16-hydroxy-2,10-dioxido-2,10-disulfanyl-octahydro-12H-5,8-methanofuro[3,2-l][1,3,6,9,11,2,10]pentaoxadiphosphacyclotetradecin-7-yl]imidazo [1,2-a]pyrimidin-5(8H)-one] had a half-maximal effective concentration (EC50) on full-length HAQ STING of 2 nM. For the same compound, the activation at 30 µM in experiment [1] (setting [2]) is 140%.

At full-length HAQ STING, `Nc1nc2c(ncn2[C@@H]2O[C@@H]3COP(=O)(S)O[C@H]4C[C@H](n5ccc6c(=O)[nH]cnc65)O[C@@H]4COP(=O)(S)O[C@@H]2[C@@H]3F)c(=O)[nH]1` (single isomer, unassigned) [Example 35] yielded a 50% effective concentration (EC50) of 11 nM. The “% Effect at 30 μM relative to 2′3′-cGAMP” value in experiment [1] was 98%.

For the compound `Nc1ncnc2c1ncn2[C@@H]1S[C@@H]2CO[P@@](=O)(S)O[C@@H]3[C@H](O)[C@@H](CO[P@@](=O)(S)O[C@H]2[C@H]1O)O[C@H]3n1ccc(=O)n2ccnc12` (single isomer, unassigned) [Example 10], the 50% effective concentration (EC50) on full-length HAQ STING amounted to 3 nM. For the same compound, the activation at 30 µM in experiment [1] (setting [2]) was 183%.

For `Nc1ncnn2c([C@H]3C[C@@H]4O[P@](=O)(S)OC[C@H]5O[C@@H](n6ccc(=O)n7ccnc67)[C@H](O[P@](=O)(S)OC[C@H]4O3)[C@@H]5O)cnc12` (single isomer, unassigned) [Example 8], the midpoint of the response at full-length HAQ STING, the EC50, lay at 23 nM. In addition, in experiment [1] (setting [2]), the activation at 30 µM turned out to be 128%.

As for `Nc1ncnc2c1ncn2[C@@H]1S[C@@H]2CO[P@](=O)(S)O[C@@H]3[C@H](O)[C@@H](CO[P@@](=O)(S)O[C@H]2[C@H]1O)O[C@H]3n1ccc(=O)n2ccnc12` (single isomer, unassigned) [Example 11], the half-maximal effective concentration (EC50) on full-length HAQ STING worked out at 1740 nM. For the same compound, in experiment [1] (setting [2]), the activation at 30 µM stood at 5%.
